Columns and labels:
[1] = test system: hyperlipoidemia model of Goldenhamsters (blood plasma TC, TG, HDL-C, LDL-C); experiment: Pharmacological test group 1: effects on blood lipid levels of Goldenhamsters in a hyperlipoidemia model; assay type: in vivo; conditions: for regulating effects on the levels of blood lipid (conclusion from table 2) / effect on HDL-C, in comparison with the results before administration (in words) / effect on TC, in comparison with the results before administration (in words) / effect on TG, in comparison with the results before administration (in words) / therapeutic effect compared with fenofibrate (conclusion from table 2): 40 mg/kg; for HDL-C, after administration / LDL-C, after administration / TC, after administration / TG, after administration: 40 mg/kg intragastric, 1 week, high-lipid feed continued, blood plasma, x±s, asterisks = P vs before administration; for effect on HDL-C, in comparison with the results before administration (in words) / effect on TC, in comparison with the results before administration (in words) / effect on TG, in comparison with the results before administration (in words): t test after vs before administration; for therapeutic effect compared with fenofibrate (conclusion from table 2): fenofibrate 40 mg/kg
Text: Animals: 134 male Goldenhamsters, aged 8 weeks, body weight 80-100 g, provided by Vital River Laboratories, Beijing. […] Kits: The kits for total cholesterol (TC), triglyceride (TG), and high density lipoprotein cholesterol (HDL-C) were provided by SYSMEX, and the kits for low density lipoprotein cholesterol (LDL-C) were provided by Shanghai Kehua Bio-engineering Co., Ltd. Apparatus: SYSMEX Automatic Biochemistry Analyzer, Bechman centrifuge, Setoris balance. The animals were acclimatized and fed for 1 week, ad lib, light cycle was 10 h/14 h, and then feeds with high lipid content were fed to the animals (formulation: 0.3% cholesterol, 20% palm oil, and 79.7% basic feeds). The animals were fed for 10 days, and were fasted at 4:00 pm on the 10th day (fasted for 16 h). On the 11th day, the animals were anaesthetized with ethyl ether, weighted, and then 0.5 ml blood was collected from vena orbitalis posterior. The blood was anticoagulated with heparin, and was centrifugated at 5000 rpm for 10 min. The blood plasma was taken, and the levels of TC, TG, HDL-C, and LDL-C in blood plasma were determined using automatic biochemistry analyzer. The animals were acclimatized and fed for 1 week, ad lib, light cycle was 10 h/14 h, and then feeds with high lipid content were fed to the animals (formulation: 0.3% cholesterol, 20% palm oil, and 79.7% basic feeds). The animals were fed for 2 weeks, and were fasted at 4:00 pm on the […] (fasted for 16 h). On the 22nd day, the animals were anaesthetized with ethyl ether, weighted, and then 0.5 ml blood was collected from vena orbitalis posterior. The blood was anticoagulated with heparin, and was centrifugated at 5000 rpm for 10 min. The blood plasma was taken, and the levels of TC, TG, HDL-C, and LDL-C in blood plasma were determined using automatic biochemistry analyzer. […] During the administration, feeds with high lipid content were continuously fed to the animals. The animals were fed for 1 week, and were fasted at 4:00 pm on the 7th day. On the 8th day, the animals were anaesthetized with ethyl ether, weighted, and then 0.5 ml blood was collected from vena orbitalis posterior. The blood was anticoagulated with heparin, and was centrifugated at 5000 rpm for 10 min. The blood plasma was taken, and the levels of TC, TG, HDL-C, and LDL-C in blood plasma were determined using automatic biochemistry analyzer. The results were represented by x±s, and t test was employed for comparing the results obtained before and after administration.

[2] = Solubility in water (remark on the test drugs); assay type: physicochemical; conditions: formulated with 20% solutol
[3] = test system: hyperlipoidemia model of Goldenhamsters (blood plasma TC, HDL-C, LDL-C); experiment: Pharmacological test group 2: effects on blood lipid levels of Goldenhamsters in hyperlipoidemia model; assay type: in vivo; conditions: for HDL-C, after administration / LDL-C, after administration / TC, after administration: 40 mg/kg intragastric, 1 week, high-lipid feed continued, asterisks = P vs before administration; for HDL-C, after administration / LDL-C, after administration / TC, after administration / HDL-C, before administration / LDL-C, before administration / TC, before administration: blood plasma, x±s; for HDL-C, before administration / LDL-C, before administration / TC, before administration: baseline of the group before administration, high-lipid feed 2 weeks, 6 animals
Text: Animals: 120 male Goldenhamsters, aged 8 weeks, body weight 80-100 g, provided by Vital River Laboratories, Beijing.
Kits: The kits for total cholesterol (TC) and high density lipoprotein cholesterol (HDL-C) were provided by SYSMEX, and the kits for low density lipoprotein cholesterol (LDL-C) were provided by Shanghai Kehua Bio-engineering Co., Ltd.
Apparatus: SYSMEX Automatic Biochemistry Analyzer, Bechman centrifuge, Setoris balance.
The animals were acclimatized and fed for 1 week, ad lib, light cycle was 10 h/14 h, and then feeds with high lipid content were fed to the animals (formulation: 0.3% cholesterol, 20% palm oil, and 79.7% basic feeds). The animals were fed for 2 weeks, and were fasted at 4:00 pm on the 14th day (fasted for 16 h). On the 15th day, the animals were anaesthetized with ethyl ether, weighted, and then 0.5 ml blood was collected from vena orbitalis posterior. The blood was anticoagulated with heparin, and was centrifugated at 5000 rpm for 10 min. The blood plasma was taken, and the levels of TC, HDL-C, and LDL-C in blood plasma were determined using automatic biochemistry analyzer.
During the administration, feeds with high lipid content were continuously fed to the animals. The animals were fed for 1 week, and were fasted at 4:00 pm on the 7th day. On the 8th day, the animals were anaesthetized with ethyl ether, weighted, and then 0.5 ml blood was collected from vena orbitalis posterior. The blood was anticoagulated with heparin, and was centrifugated at 5000 rpm for 10 min. The blood plasma was taken, and the levels of TC, HDL-C, and LDL-C in blood plasma were determined using automatic biochemistry analyzer.
The results were represented by x±s, and t test was employed for comparing the results obtained before and after administration.

[4] = 40 mg/kg, t test after vs before administration

| Compound | regulating effects on the levels of blood lipid (conclusion from table 2) [1] | HDL-C, after administration [1] | LDL-C, after administration [1] | TC, after administration [1] | TG, after administration [1] | effect on TC, in comparison with the results before administration (in words) [1] | effect on TG, in comparison with the results before administration (in words) [1] | solubility in water [2] | other results |
| --- | --- | --- | --- | --- | --- | --- | --- | --- | --- |
| CC(C)OC(=O)C(C)(C)Oc1ccc(C(F)(F)c2ccc(F)cc2)cc1 [HS003-006, Isopropyl 2-(4-((4-fluorophenyl)difluoromethyl)phenoxy)-2-methylpropionate] | tend to the effects of significantly decreasing TG, TC, and LDL-C | 3.64 ± 0.31 | 1.02 ± 0.27 | 8.96 ± 0.77 | 1.06 ± 0.29 | significantly decreases | significantly decreases | – | effect on HDL-C, in comparison with the results before administration (in words) [1]: increases |
| CC(C)OC(=O)C(C)(C)Oc1ccc(C(F)(F)c2ccc(C(F)(F)F)cc2)cc1 [HS003-007, Isopropyl 2-(4-((4-trifluoromethylphenyl)difluoromethyl)phenoxy)-2-methylpropionate] | tend to the effects of significantly decreasing TG, TC, and LDL-C | 2.99 ± 0.13 | 1.26 ± 0.22 | 7.42 ± 0.71 | 2.12 ± 0.43 | significantly decreases | – | – | – |
| Cc1ccc(C(F)(F)c2ccc(OC(C)(C)C(=O)OC(C)C)cc2)cc1 [HS003-009, Isopropyl 2-(4-((4-methylphenyl)difluoromethyl)phenoxy)-2-methylpropionate] | – | – | – | – | – | – | – | insoluble | – |
| CC(C)OC(=O)C(C)(C)Oc1ccc(C(F)(F)c2cccc(Cl)c2)cc1 [HS003-011, Isopropyl 2-(4-((3-chlorophenyl)difluoromethyl)phenoxy)-2-methylpropionate] | – | – | – | – | – | – | – | insoluble | blood lipid-regulating effects (conclusion from table 3) ([3]; 40 mg/kg): excellent blood lipid-regulating effects; HDL-C, after administration [3]: 1.93 ± 0.91; LDL-C, after administration [3]: 2.21 ± 0.91; TC, after administration [3]: 11.94 ± 2.71; effect on HDL-C, in comparison with the results before administration (in words) [3, 4]: increase; effect on LDL-C, in comparison with the results before administration (in words) [3, 4]: significantly decreases; HDL-C, before administration [3]: 1.46 ± 0.16; LDL-C, before administration [3]: 4.02 ± 1.34; TC, before administration [3]: 13.91 ± 2.34 |
| Cc1cccc(C(F)(F)c2ccc(OC(C)(C)C(=O)OC(C)C)cc2)c1 [HS003-012, Isopropyl 2-(4-((3-methylphenyl)difluoromethyl)phenoxy)-2-methylpropionate] | – | – | – | – | – | – | – | insoluble | – |
| CC(C)OC(=O)C(C)(C)Oc1ccc(C(F)(F)c2cccc(C(F)(F)F)c2)cc1 [HS003-013, Isopropyl 2-(4-((3-trifluoromethylphenyl)difluoromethyl)phenoxy)-2-methylpropionate] | tend to the effects of significantly decreasing TG, TC, and LDL-C | 3.12 ± 0.25 | 1.46 ± 0.46 | 8.93 ± 0.53 | 1.84 ± 0.45 | significantly decreases | – | – | – |
| Cc1ccccc1C(F)(F)c1ccc(OC(C)(C)C(=O)OC(C)C)cc1 [HS003-015, Isopropyl 2-(4-((2-methylphenyl)difluoromethyl)phenoxy)-2-methylpropionate] | – | – | – | – | – | – | – | insoluble | HDL-C, after administration [3]: 1.77 ± 0.18; LDL-C, after administration [3]: 2.26 ± 1.03; TC, after administration [3]: 15.3 ± 3.74; effect on HDL-C, in comparison with the results before administration (in words) [3, 4]: significantly increases; HDL-C, before administration [3]: 1.54 ± 0.07; LDL-C, before administration [3]: 3.14 ± 1.22; TC, before administration [3]: 13.99 ± 2.3 |
| CC(C)OC(=O)C(C)(C)Oc1ccc(C(F)(F)c2ccccc2C(F)(F)F)cc1 [HS003-016, Isopropyl 2-(4-((2-trifluoromethylphenyl)difluoromethyl)phenoxy)-2-methylpropionate] | tend to the effects of significantly decreasing TG, TC, and LDL-C | 3.40 ± 0.32 | 1.0 ± 0.23 | 8.44 ± 1.12 | 1.23 ± 0.42 | significantly decreases | – | – | – |
| COC(=O)c1ccc(C(F)(F)c2ccc(OC(C)(C)C(=O)OC(C)C)cc2)cc1 [HS003-017, Isopropyl 2-(4-((4-methoxyacylphenyl)difluoromethyl)phenoxy)-2-methylpropionate] | tend to the effect of significantly decreasing TG and increasing HDL-C | 4.09 ± 0.18 | 1.41 ± 0.34 | 11.61 ± 1.42 | 0.81 ± 0.15 | – | significantly decreases | – | therapeutic effect compared with fenofibrate (conclusion from table 2) [1]: outstanding therapeutic effects on decreasing TG, and are significantly superior to fenofibrate |
| Cc1cc(OC(C)(C)C(=O)OC(C)C)ccc1C(F)(F)c1ccc(Cl)cc1 [HS003-019, Isopropyl 2-(4-((4-chlorophenyl)difluoromethyl)-3-methylphenoxy)-2-methylpropionate] | – | – | – | – | – | – | – | insoluble | blood lipid-regulating effects (conclusion from table 3) ([3]; 40 mg/kg): excellent blood lipid-regulating effects; HDL-C, after administration [3]: 1.84 ± 0.21; LDL-C, after administration [3]: 1.83 ± 0.56; TC, after administration [3]: 10.62 ± 1.02; therapeutic effect compared with fenofibrate (conclusion from table 3) ([3]; 40 mg/kg, fenofibrate 40 mg/kg): outstanding therapeutic effects, and are superior to fenofibrate; effect on LDL-C, in comparison with the results before administration (in words) [3, 4]: significantly decreases; effect on TC, in comparison with the results before administration (in words) [3, 4]: significantly decreases; HDL-C, before administration [3]: 1.67 ± 0.22; LDL-C, before administration [3]: 3.12 ± 1.47; TC, before administration [3]: 13.99 ± 2.28 |
| O=C(COc1ccc(C(F)(F)c2ccc(Cl)cc2)cc1)OCc1ccccc1 [HS003-021, Benzyl 2-(4-((4-chlorophenyl)difluoromethyl)phenoxy)-acetate] | tend to the effect of significantly decreasing TG and increasing HDL-C | 4.46 ± 0.23 | 2.08 ± 0.89 | 13.37 ± 3.3 | 1.1 ± 0.53 | – | significantly decreases | – | effect on HDL-C, in comparison with the results before administration (in words) [1]: significantly increases |
| CCOC(=O)CCCOc1ccc(C(F)(F)c2ccc(Cl)cc2)cc1 [HS003-026, Ethyl 4-(4-((4-chlorophenyl)difluoromethyl)phenoxy)butyrate] | tend to the effect of significantly decreasing TG and increasing HDL-C | 4.13 ± 0.32 | 1.69 ± 0.47 | 11.18 ± 1.6 | 0.82 ± 0.24 | – | significantly decreases | – | therapeutic effect compared with fenofibrate (conclusion from table 2) [1]: outstanding therapeutic effects on decreasing TG, and are significantly superior to fenofibrate; effect on HDL-C, in comparison with the results before administration (in words) [1]: significantly increases |

Reference: US9487470B2, “4-((substituted phenyl) difluoromethyl) phenoxy carboxylic acid derivative, and preparation method and uses thereof” (Zhejiang Hisun Pharmaceutical Co., Ltd., priority 2012, dated 2016)
